Experimental data from patent US20030216571A1, “Tricyclic compounds” (priority 1999, published 2003).

Experiments:
[1] = system: Leukotriene D4 induced respiratory constriction; experiment: Leukotriene D4 induced respiratory constriction test; format: in vivo; settings: p.o. 1 hr before i.v. LTD4; anesthetized Hartley male guinea pigs; respiratory inner pressure
Method: Leukotriene D4 Induced Respiratory Constriction Test
Respiratory constriction was measured by modifying the method of Konzett and Rossler (Arch. Exp. Pathol. Pharmakol., 195, pp. 71-74 (1940)). Hartley male guinea pigs (400 to 500 g body weight, Nippon SLC Co.) were anesthetized with pentobarbital (50 mg/kg, s.c.), and a cannula was inserted into the trachea to carry out artificial ventilation with an artificial ventilator (manufactured by Harvard Co., Model 683). An inner pressure of the respiratory tract was measured by a differential pressure transducer (Nihon Koden, TP-603T) connected to the respiratory cannula and it is used as an index of respiratory constriction.
LTD4 (0.03, 0.06, 0.13, 0.25, 0.5, 1 and 2 μg/kg, Sigma Co.) was intravenously administered from a cannula inserted into the right jugular vein from a low dose with an interval of 5 minutes to cause a respiratory constriction reaction and an increased amount of a respiratory inner pressure was measured. Test compound was suspended in 0.5% sodium carboxymethyl cellulose aqueous solution, and orally administered 1 hour before administration of LTD4. Animals were fasted for 24 hours before administration of the Test compound.
A2=(Dose of Compound administered)/{(ED50 of group to which Compound was added)/(ED50 of control group)−1}

[2] = target: T1, Leukotriene D4 receptor (Cavia porcellus, UniProt Q2NNR5); experiment: Leukotriene D4 receptor binding test; settings: binding inhibition constant (Ki) vs [3H] LTD4 0.2 nM; lung cell membrane fraction from guinea pigs; 25° C. for 30 minutes; read-out: pKi value (converted)
T1 construct: As a receptor sample, a lung cell membrane fraction from guinea pigs was used; from tissue; host or cells: lung membrane fraction of Hartley male guinea pigs
T1 sequence (Q2NNR5 1-340): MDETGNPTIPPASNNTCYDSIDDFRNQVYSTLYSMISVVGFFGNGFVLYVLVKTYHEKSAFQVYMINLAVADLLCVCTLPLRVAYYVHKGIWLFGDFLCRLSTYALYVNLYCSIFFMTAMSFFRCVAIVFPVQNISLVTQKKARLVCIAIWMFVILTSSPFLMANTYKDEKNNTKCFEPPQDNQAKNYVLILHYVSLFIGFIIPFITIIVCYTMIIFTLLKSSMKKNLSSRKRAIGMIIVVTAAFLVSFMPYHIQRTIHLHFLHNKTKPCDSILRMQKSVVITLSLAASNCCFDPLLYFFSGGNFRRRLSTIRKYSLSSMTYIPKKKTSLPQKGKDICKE
Method: Leukotriene D4 Receptor Binding Test
As a receptor sample, a lung cell membrane fraction from guinea pigs was used. Preparation of the membrane fraction was carried out according to the method of Ahn et al. (Eur. J. Pharmacol., 127, 153-155 (1986)). Lungs of Hartley male guinea pigs (400 to 500 g body weight, Nippon SLC Co.) were extracted, and perfused with a physiological saline, and then, adding 10 mM of PIPES, 10 mM of MgCl2 and 10 mM of CaCl2 buffer (pH 7.5) to the lung tissue and the mixture was homogenized. This homogenate was centrifuged at 70,000 xg for 10 minutes to obtain a membrane fraction.
Leukotriene D4 (LTD4) recepter binding test was carried out according to the method of Aharony, et al. (J. Pharmacol. Expl.Ther., 243, 921-926 (1987)). To 0.42 mg of the receptor sample were added 10 mM of PIPES, 10 mM of MgCl2 and 10 mM of CaCl2 buffer (pH 7.5) to make the total amount of 480 μl, and 10 μl of [^3H] LTD4 (NEN Life Science Products Co.) and 10 μl of a Test compound in dimethylsulfoxide were added to the mixture, and the resulting mixture was incubated at 25° C. for 30 minutes. The mixtures thus incubated were filtered through a glass fiber filter (Whatman Co., GF/C) using cell harvester (Brandel Co., M-30R). The filter were washed with 10 mM of Tris. and 100 mM of NaCl buffer (pH 7.5), and 5 ml of a liquid scintillator (NACALAI TESQUE INC., clearsol I), and radioactivity was measured by a liquid scintillation analyzer (Packard Co., 2000CA). When a dissociation constant (Kd) of LTD4 was to be obtained, [^3H] LTD4 with 0.03 to 0.5 nM was used, and 1 μM of non-radioactive LTD4 was added. When a binding inhibition constant (Ki) of the Test compound is to be meaured, [^3H] LTD4 with 0.2 nM was used. Kd and Ki are calculated according to the method of Bennett et al. (Neurotransmitter Receptor Binding, 2nd ed., edited by H. I. Yamamura et al., pp. 61-89, Raven Press (1985)).

Row | SMILES | melting point | A2 (dose of Test compound required for shifting two-times the LTD4 dose-reaction curve of control group to higher dose side) [1] | Ki [2]
1 | O=C([O-])CCSC1c2ccccc2COc2ccc(/C=C/c3ccc4c(F)c(F)c(F)cc4n3)cc21.[Na+] (stereo not drawn) [Example 34 (b), Sodium 3-{[2-[(E)-2-(5,6,7-trifluoro-2-quinolinyl)ethenyl]-6,11-dihydrodibenz[b,e]oxepin-11-yl]thio}propionate] | 235 to 237 °C | 7.7 µg/kg | 631 pM
2 | O=C([O-])CCSC1c2ccccc2CCc2ccc(/C=C/c3ccc4cc(F)c(F)cc4n3)cc21.[Na+] (stereo not drawn) [Example 40, Sodium 3-{[3-[(E)-2-(6,7-difluoro-2-quinolinyl)ethenyl]-10,11-dihydro-5H-dibenz[a,d]cyclohepten-5-yl]thio}propionate] | 179 to 182 °C | 8.8 µg/kg | 794 pM
3 | O=C([O-])CC1(CSC2c3ccccc3COc3ccc(/C=C/c4ccc5cc(F)c(F)cc5n4)cc32)CC1.[Na+] (stereo not drawn) [Example 7 (b), Sodium {1-[[2-[(E)-2-(6,7-difluoro-2-quinolinyl)ethenyl]-6,11-dihydrodibenz[b,e]oxepin-11-yl]thiomethyl]cyclopropyl}acetate] | 137 to 139 °C | 3.5 µg/kg | 200 pM
4 | O=C([O-])CCSC1c2cc(/C=C/c3ccc4cc(F)c(F)cc4n3)ccc2OCc2c1cccc2C(F)(F)F.[Na+] (stereo not drawn) [Example 14, Sodium 3-{[2-[(E)-2-(6,7-difluoro-2-quinolinyl)ethenyl]-7-trifluoromethyl-6,11-dihydrodibenz[b,e]oxepin-11-yl]thio}propionate] | – | 4.4 µg/kg | 631 pM
5 | O=C(O)C(F)(F)F.O=C(O)CC1(CSC2c3cc(/C=C/c4ccc5cc(F)c(F)cc5n4)ccc3OCc3c(F)cccc32)CC1 (stereo not drawn) [Example 3, {1-[[2-[(E)-2-(6,7-difluoro-2-quinolinyl)ethenyl]-7-fluoro-6,11-dihydrodibenz[b,e]oxepin-11-yl]thiomethyl]cyclopropyl}acetic acid trifluoroacetic acid salt] | 174 to 179 °C | 3.6 µg/kg | 158 pM
6 | O=C([O-])CCSC1c2ccccc2COc2ccc(/C=C/c3ccc4cc(F)c(F)cc4n3)cc21.[Na+] (stereo not drawn) [Example 5 (b), Sodium 3-{[2-[(E)-2-(6,7-difluoro-2-quinolinyl)ethenyl]-6,11-dihydrodibenz[b,e]oxepin-11-yl]thio}propionate] | 213 to 216 °C | 2.6 µg/kg | 251 pM
7 | C[C@@H](CSC1c2ccccc2COc2ccc(/C=C/c3ccc4ccc(Cl)cc4n3)cc21)C(=O)[O-].[Na+] (stereo partly drawn) [Example 23, Sodium 3-{[2-[(E)-2-(7-chloro-2-quinolinyl)ethenyl]-6,11-dihydrodibenz[b,e]oxepin-11-yl]thio}-2-(R)-methylpropionate] | 207 to 217 °C | 5.7 µg/kg | 501 pM
8 | C[C@H](CSC1c2ccccc2COc2ccc(/C=C/c3ccc4cc(F)c(F)cc4n3)cc21)C(=O)[O-].[Na+] (stereo partly drawn) [Example 43, Sodium 3-{[2-[(E)-2-(6,7-difluoro-2-quinolinyl)ethenyl]-6,11-dihydrodibenz[b,e]oxepin-11-yl]thio}-2-(S)-methyl-propionate] | 193 to 216 °C | 1.3 µg/kg | 126 pM
9 | O=C([O-])CCSC1c2ccccc2COc2ccc(/C=C/c3ccc4cc(F)c(Cl)cc4n3)cc21.[Na+] (stereo not drawn) [Example 2 (b), Sodium 3-{[2-[(E)-2-(7-chloro-6-fluoro-2-quinolinyl)ethenyl]-6,11-dihydrodibenz[b,e]oxepin-11-yl]thio}propionate] | – | 1.7 µg/kg | 316 pM
10 | O=C([O-])CC1(CSC2c3ccccc3COc3ccc(/C=C/c4ccc5c(F)c(F)c(F)cc5n4)cc32)CC1.[Na+] (stereo not drawn) [Example 35 (b), Sodium {1-[[2-[(E)-2-(5,6,7-trifluoro-2-quinolinyl)ethenyl]-6,11-dihydrodibenz[b,e]oxepin-11-yl]thiomethyl]cyclopropyl}acetate] | 195 to 198 °C | 6.6 µg/kg | 398 pM
11 | N#Cc1cccc2c1COc1ccc(/C=C/c3ccc4cc(F)c(F)cc4n3)cc1C2SCCC(=O)[O-].[Na+] (stereo not drawn) [Example 13 (b), Sodium 3-{[7-cyano-2-[(E)-2-(6,7-difluoro-2-quinolinyl)ethenyl]-6,11-dihydrodibenz[b,e]oxepin-11-yl]thio}propionate] | 179 to 182 °C | 7.8 µg/kg | 631 pM
12 | O=C([O-])CCSC1c2cc(/C=C/c3ccc4cc(F)c(F)cc4n3)ccc2COc2ccccc21.[Na+] (stereo not drawn) [Example 54 (b), Sodium 3-{[9-[(E)-2-(6,7-difluoro-2-quinolinyl)ethenyl]-6,11-dihydrodibenz[b,e]oxepin-11-yl]thio}propionate] | > 300 °C | 2.3 µg/kg | 126 pM
13 | CC(C)(CC(=O)O)SC1c2ccccc2COc2ccc(/C=C/c3ccc4cc(F)c(F)cc4n3)cc21 (stereo not drawn) [Example 58, 3-{[2-[(E)-2-(6,7-difluoro-2-quinolinyl)ethenyl]-6,11-dihydrodibenz[b,e]oxepin-11-yl]thio}-3-methylbutanoic acid] | – | 6.4 µg/kg | 501 pM
14 | O=C(O)CCSC1c2cc(/C=C/c3ccc4cc(F)c(F)cc4n3)ccc2OCc2c(F)cccc21 (stereo not drawn) [Example 12, 3-{[2-[(E)-2-(6,7-difluoro-2-quinolinyl)ethenyl]-7-fluoro-6,11-dihydrodibenz[b,e]oxepin-11-yl]thio}propionic acid] | 224 to 227 °C | 4.9 µg/kg | 158 pM
15 | O=C([O-])CCSC1c2ccccc2COc2ccc(/C=C/c3ccc4c(F)cc(F)cc4n3)cc21.[Na+] (stereo not drawn) [Example 32 (b), Sodium 3-{[2-[(E)-2-(5,7-difluoro-2-quinolinyl)ethenyl]-6,11-dihydrodibenz[b,e]oxepin-11-yl]thio}propionate] | 210 to 213 °C | 9.4 µg/kg | 794 pM
